In patent publication US11707440B2 (priority 2017, dated 2023):

Experiments:
[1] = tested on: subjects with MDD at imminent risk for suicide; experiment: MADRS total score, study […]2001; type: in vivo, human; conditions: esketamine 84 mg; baseline to Day 1, 4-hours postdose; ANCOVA
Description: Primary efficacy variable/Primary Time point: Change from baseline (Day 1, predose) to Day 1, 4-hours postdose in MADRS total score. The MADRS consists of 10 items that cover all of the core depressive symptoms, with each item scoring from 0 (item is not present or is normal) to 6 (severe or continuous presence of the symptom). A higher score represents a more severe condition.
The primary efficacy endpoint is the change in MADRS total score from baseline to Day 1: 4-hours postdose. MADRS total scores range from 0 to 60. […] As this is a phase 2a proof-of-concept study, statistical significance is based on a two-sided alpha level of 0.20. All p-values presented in this document are two-sided.

[2] = tested on: subjects with MDD at imminent risk for suicide; conditions: esketamine 84 mg
[3] = tested on: subjects with MDD at imminent risk for suicide; experiment: Beck Scale for Suicidal Ideation (BSS), […]2001; type: in vivo, human; conditions: esketamine 84 mg; Day 1: 4-hours postdose, Day 2 (DB), or End Point (DB)
Description: The BSS is a 21-item self-reported instrument to detect and measure the severity of suicidal ideation in adults and adolescents aged 17 years and older. The BSS total score represents the severity of suicide ideation, and it is calculated by summing the ratings of the first 19 items; the total score ranges from 0 to 38, with a higher score representing greater suicide ideation. Increasing scores reflect increases in suicidal risk.

[4] = tested on: subjects with MDD at imminent risk for suicide; experiment: Sustained response, response and remission based on MADRS, […]2001; type: in vivo, human; conditions: esketamine 84 mg; at least 50% MADRS reduction from Day 1 4 hours through Day 25
Description: • a. Changes from baseline to Day 2 and Day 25 for the MADRS total score • b. Changes from baseline to Day 1 4-hours postdose, Day 2 and Day 25 for the MADRS Suicide Item • c. Changes from baseline to Day 1 4-hours postdose, Day 2, and Day 25 for the clinical global judgment of suicide risk from the Suicide Ideation and Behavior Assessment Tool (SIBAT) • d. Sustained response (Onset of Clinical Response) defined as at least 50% reduction from baseline in MADRS total score with onset on Day 1 that is maintained through the end of the double-blind phase (Day 25) • e. Changes from baseline to Day 1 4-hours postdose, Day 2, and Day 25 for the Beck Scale for Suicidal Ideation (BSS) • f. Changes from baseline to Day 1 4-hours postdose and Day 25 for the Beck Hopelessness Scale
Sustained response is defined as at least 50% reduction from baseline in MADRS total score with onset on Day 1: 4 hours postdose that is maintained through the end of the double-blind phase (Day 25). Four subjects in the esketamine 84 mg group and 2 subjects in the placebo group had sustained response throughout the double-blind phase.

## CN[C@]1(c2ccccc2Cl)CCCCC1=O [esketamine, (S)-2-(2-chlorophenyl)-2-(methylamino)cyclohexanone]
[1]
  MADRS total score, least-square mean difference (SE) from placebo: −5.3 (2.10)
[2]
  Subjects who discontinued from the double-blind phase due to (treatment-emergent) adverse events: 5 subjects
[2]; double-blind phase
  Subjects with a serious TEAE: Four
  Subjects with at least one TEAE: 94.3%
  TEAE dissociation: 31.4%
  TEAE dizziness: 34.3%
  TEAE dysgeusia: 31.4%
  TEAE headache: 31.4%
  TEAE nausea: 37.1%
  TEAE vomiting: 20.0%
[2]; follow up phase
  Subjects with a serious adverse event: 1 subjects
  Subjects with at least one adverse event: 48.1%
[3]
  BSS total score change vs placebo: no statistically significant differences
[4]
  Subjects with sustained response throughout the double-blind phase: Four
